In the CheMixHub drug solubility set:

Test: xn = mol fraction of the nth substance listed, in the solute-free solvent

CC(=O)N1CCN(c2ccc(OCC3COC(Cn4ccnc4)(c4ccc(Cl)cc4Cl)O3)cc2)CC1 (stereo unspecified) + C1COCCO1 + O
solubility (g/100 g solution)
Conditions | x2 = 0.02222 | x2 = 0.04865 | x2 = 0.0806 | x2 = 0.12 | x2 = 0.1698 | x2 = 0.2348 | x2 = 0.3231 | x2 = 0.45 | x2 = 0.648
293.15 K | 0.00759 | 0.0327 | 0.155 | 0.537 | 2.07 | 6.72 | 16.6 | 22.9 | 18.7
298.15 K | 0.00818 | 0.0386 | 0.171 | 0.692 | 2.58 | 8.67 | 18.8 | 25.4 | 20.6
303.15 K | 0.00845 | 0.0485 | 0.197 | 0.87 | 3.25 | 10.9 | 21.1 | 27.8 | 22.6
308.15 K | 0.00894 | 0.0594 | 0.216 | 1.04 | 4.24 | 13.4 | 24.4 | 29.9 | 24.3
313.15 K | 0.00948 | 0.07 | 0.25 | 1.3 | 5.11 | 16 | 27.2 | 32.5 | 26.7

Cc1[nH]c(=O)c(C#N)cc1-c1ccncc1 + CCO + O
solubility (g/100 g solution)
Conditions | 278.15 K | 283.15 K | 288.15 K | 293.15 K | 298.15 K | 303.15 K | 308.15 K | 313.15 K | 318.15 K | 323.15 K
x2 = 0.04165 | 0.000675 | 0.000813 | 0.000966 | 0.00114 | 0.00133 | 0.00153 | 0.00174 | 0.00198 | 0.00224 | 0.00254
x2 = 0.08908 | 0.000855 | 0.00103 | 0.00123 | 0.00144 | 0.00169 | 0.00194 | 0.00221 | 0.00251 | 0.00285 | 0.00321
x2 = 0.1436 | 0.00114 | 0.00138 | 0.00163 | 0.00192 | 0.00225 | 0.00258 | 0.00294 | 0.00333 | 0.00377 | 0.00426
x2 = 0.2068 | 0.00154 | 0.00186 | 0.00221 | 0.00259 | 0.00303 | 0.00348 | 0.00395 | 0.00447 | 0.00505 | 0.0057
x2 = 0.2812 | 0.00206 | 0.00239 | 0.00288 | 0.00338 | 0.0039 | 0.00453 | 0.00517 | 0.00586 | 0.00662 | 0.00754
x2 = 0.3698 | 0.00266 | 0.00322 | 0.00381 | 0.00446 | 0.00518 | 0.00596 | 0.00676 | 0.00763 | 0.0086 | 0.00968
x2 = 0.4772 | 0.00326 | 0.00385 | 0.00461 | 0.0054 | 0.00629 | 0.00717 | 0.00815 | 0.00921 | 0.0105 | 0.0119
x2 = 0.6101 | 0.00373 | 0.00451 | 0.0054 | 0.00637 | 0.00745 | 0.00844 | 0.00959 | 0.0108 | 0.0122 | 0.0138
x2 = 0.7788 | 0.00412 | 0.00503 | 0.00602 | 0.00705 | 0.00817 | 0.00928 | 0.0105 | 0.0119 | 0.0135 | 0.0153

COc1cc2c(cc1OC)-c1cc3ccc(OC)c(OC)c3c[n+]1CC2.[Cl-] + O + CC(C)O
solubility (g/100 g solution)
Conditions | 283.15 K | 288.15 K | 293.15 K | 298.15 K | 303.15 K | 308.15 K | 313.15 K | 318.15 K | 323.15 K | 328.15 K
x2 = 0.2703 | 0.15 | 0.185 | 0.238 | 0.315 | 0.402 | 0.504 | 0.629 | 0.775 | 0.949 | 1.16
x2 = 0.4546 | 0.201 | 0.247 | 0.317 | 0.417 | 0.531 | 0.663 | 0.824 | 1.01 | 1.24 | 1.51
x2 = 0.5883 | 0.269 | 0.33 | 0.423 | 0.553 | 0.7 | 0.872 | 1.08 | 1.32 | 1.6 | 1.95
x2 = 0.6897 | 0.356 | 0.437 | 0.559 | 0.725 | 0.933 | 1.19 | 1.46 | 1.76 | 2.11 | 2.49
x2 = 0.7693 | 0.463 | 0.593 | 0.762 | 0.958 | 1.25 | 1.49 | 1.82 | 2.18 | 2.62 | 3.11
x2 = 0.8334 | 0.587 | 0.719 | 0.914 | 1.17 | 1.46 | 1.8 | 2.19 | 2.65 | 3.18 | 3.81
x2 = 0.8861 | 0.724 | 0.887 | 1.12 | 1.43 | 1.85 | 2.25 | 2.72 | 3.24 | 3.85 | 4.53
x2 = 0.9303 | 0.871 | 1.07 | 1.35 | 1.7 | 2.17 | 2.67 | 3.23 | 3.87 | 4.64 | 5.28
x2 = 0.9678 | 1.03 | 1.26 | 1.59 | 1.99 | 2.5 | 3.05 | 3.69 | 4.4 | 5.23 | 6.04

Nc1cccc(S(=O)(=O)c2cccc(N)c2)c1 + CN(C)C=O + O
solubility (g/100 g solution)
Conditions | 283.15 K | 288.15 K | 293.15 K | 298.15 K | 303.15 K | 308.15 K | 313.15 K | 318.15 K | 323.15 K | 328.15 K
x2 = 0.02666 | 0.202 | 0.267 | 0.355 | 0.463 | 0.615 | 0.787 | 1.01 | 1.26 | 1.53 | 1.97
x2 = 0.05806 | 0.784 | 1.03 | 1.32 | 1.65 | 2.08 | 2.63 | 3.23 | 3.98 | 4.79 | 5.92
x2 = 0.09556 | 2.09 | 2.63 | 3.21 | 3.95 | 4.75 | 5.77 | 6.85 | 8.08 | 9.45 | 11
x2 = 0.1412 | 4.93 | 5.86 | 6.87 | 8.09 | 9.39 | 10.8 | 12.4 | 14.1 | 15.9 | 17.7
x2 = 0.1978 | 7.85 | 9.25 | 10.8 | 12.5 | 14.2 | 16.2 | 18.4 | 20.5 | 22.9 | 25.4
x2 = 0.27 | 11.4 | 13 | 15 | 16.9 | 19.1 | 21.5 | 23.9 | 26.7 | 29.3 | 32.1
x2 = 0.3652 | 14.4 | 16.6 | 18.8 | 21.2 | 23.6 | 26.3 | 29.1 | 31.9 | 34.6 | 37.4
x2 = 0.4965 | 17.8 | 20.1 | 22.5 | 25.2 | 27.8 | 30.7 | 33.8 | 36.6 | 39.7 | 42.6
x2 = 0.6893 | 20.8 | 23.1 | 25.7 | 28.2 | 31.1 | 33.9 | 36.5 | 39.4 | 42.3 | 45.4

CN1CCN(C2=Nc3cc(Cl)ccc3Nc3ccccc32)CC1 + CS(C)=O + O
solubility (g/100 g solution)
Conditions | 293.15 K | 298.15 K | 303.15 K | 308.15 K | 313.15 K | 318.15 K | 323.15 K | 328.15 K | 333.15 K
x2 = 0.02501 | 0.0367 | 0.0478 | 0.0615 | 0.0795 | 0.0996 | 0.126 | 0.159 | 0.2 | 0.249
x2 = 0.05457 | 0.375 | 0.473 | 0.591 | 0.724 | 0.873 | 1.06 | 1.28 | 1.54 | 1.84
x2 = 0.09003 | 1.33 | 1.64 | 1.96 | 2.36 | 2.78 | 3.26 | 3.88 | 4.56 | 5.3
x2 = 0.1334 | 3.26 | 3.82 | 4.52 | 5.18 | 6.01 | 6.93 | 8.01 | 9.03 | 10.2
x2 = 0.1876 | 5.71 | 6.6 | 7.64 | 8.74 | 9.88 | 11.3 | 12.7 | 14.2 | 15.7
x2 = 0.2572 | 9.16 | 10.5 | 12.1 | 13.6 | 15.4 | 17.2 | 19.1 | 21.3 | 23.4
x2 = 0.3501 | 12.9 | 14.6 | 16.6 | 18.6 | 20.7 | 23.1 | 25.5 | 27.9 | 30.5
x2 = 0.4801 | 16.2 | 18.2 | 20.4 | 22.7 | 25.2 | 27.9 | 30.6 | 33.4 | 36.3
x2 = 0.6751 | 18.4 | 20.7 | 23.2 | 25.8 | 28.6 | 31.3 | 34.3 | 37.4 | 40.4

Nc1cccc(S(=O)(=O)c2cccc(N)c2)c1 + CCO + O
solubility (g/100 g solution)
Conditions | 283.15 K | 288.15 K | 293.15 K | 298.15 K | 303.15 K | 308.15 K | 313.15 K | 318.15 K | 323.15 K | 328.15 K
x2 = 0.04165 | 0.0709 | 0.0964 | 0.128 | 0.168 | 0.215 | 0.284 | 0.356 | 0.459 | 0.577 | 0.72
x2 = 0.08908 | 0.129 | 0.173 | 0.226 | 0.3 | 0.383 | 0.491 | 0.619 | 0.788 | 0.987 | 1.23
x2 = 0.1436 | 0.209 | 0.277 | 0.357 | 0.462 | 0.591 | 0.744 | 0.941 | 1.16 | 1.45 | 1.78
x2 = 0.2068 | 0.318 | 0.41 | 0.509 | 0.646 | 0.822 | 1.02 | 1.25 | 1.51 | 1.84 | 2.24
x2 = 0.2812 | 0.455 | 0.561 | 0.706 | 0.874 | 1.07 | 1.3 | 1.56 | 1.89 | 2.26 | 2.69
x2 = 0.3698 | 0.604 | 0.732 | 0.907 | 1.11 | 1.34 | 1.64 | 1.92 | 2.33 | 2.7 | 3.21
x2 = 0.4772 | 0.76 | 0.93 | 1.14 | 1.34 | 1.62 | 1.92 | 2.28 | 2.69 | 3.15 | 3.7
x2 = 0.6101 | 0.914 | 1.09 | 1.31 | 1.55 | 1.88 | 2.19 | 2.57 | 3.03 | 3.51 | 4.06
x2 = 0.7788 | 1.1 | 1.29 | 1.52 | 1.79 | 2.08 | 2.43 | 2.81 | 3.25 | 3.75 | 4.28

CCC(C)n1ncn(-c2ccc(N3CCN(c4ccc(OCC5COC(Cn6cncn6)(c6ccc(Cl)cc6Cl)O5)cc4)CC3)cc2)c1=O (stereo unspecified) + ClCCl + CCO
solubility (g/100 g solution)
Conditions | x2 = 0.05744 | x2 = 0.1206 | x2 = 0.1903 | x2 = 0.2677 | x2 = 0.3542 | x2 = 0.4513 | x2 = 0.5613 | x2 = 0.6869 | x2 = 0.8315
288.15 K | 0.0488 | 0.124 | 0.37 | 1.04 | 2.95 | 7.26 | 15.2 | 21.3 | 25.9
293.15 K | 0.0616 | 0.163 | 0.436 | 1.35 | 3.51 | 8.44 | 16.3 | 22.6 | 27
298.15 K | 0.0776 | 0.215 | 0.511 | 1.72 | 4.09 | 9.83 | 17.6 | 24 | 28.2
303.15 K | 0.0979 | 0.279 | 0.598 | 2.16 | 4.81 | 11.3 | 18.8 | 25.4 | 29.3
308.15 K | 0.122 | 0.362 | 0.694 | 2.7 | 5.58 | 13 | 20.1 | 26.7 | 30.5
